Assay results published in US8263642B2, “Antimicrobial compounds and methods of use thereof” (Vanderbilt University, priority 2008, dated 2012).

Assays:
response regulator HssR [1] = assay: HssR dependence, Stern test; type: cell-based
Protocol: (§1) Methods for obtaining the data shown in Tables 1 and 2 are described herein.
(§2) With reference to Table 1, “Luminescence” refers to the raw luminescence value obtained in a luminomter. “Control (82.5 nm)” refers to the luminescence value obtained from heme at 82.5 nM as a positive control in the same plate as the experimental. “% lum” is the percentage of luminescence induced by the compound as compared to the heme control in the same plate. […] All of these assays are described in the application. […] “N/T” indicates the test was not performed.

Stern = assay: Heme adaptation, Stern test; type: cell-based
Protocol: as §1, §2

[2] = test system: HssRS-dependent hrtAB expression; assay: Luminescence-based assay to monitor HssRS-dependent hrtAB expression (phrtABlux reporter), Newman; type: cell-based, Staphylococcus aureus; settings: for activation at 0.0825 µM: Staphylococcus aureus, NEWMAN, read-out: % Lumi, luminescence induced by the compound compared to the heme control (82.5 nM) in the same plate; for activation at 0.0825 µM / Luminescence: Newman; for Luminescence: raw luminescence value obtained in a luminometer
In short: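 S. aureus Newman wild type or ΔhssR carrying a hrtAB promoter–luxCDABE reporter (phrtABlux), grown in TSB with 10 μg/ml chloramphenicol at 37 °C. Light output read against 82.5 nM heme as the in-plate positive control. Activity given as % of heme-induced luminescence.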

response regulator HssR [3] = assay: HssR dependence of XylE inducing activity, Newman; type: cell-based, Staphylococcus aureus; settings: whether XylE inducing activity requires HssR
Protocol: With reference to Table 1, “Luminescence” refers to the raw luminescence value obtained in a luminomter. “Control (82.5 nm)” refers to the luminescence value obtained from heme at 82.5 nM as a positive control in the same plate as the experimental. “% lum” is the percentage of luminescence induced by the compound as compared to the heme control in the same plate. […] All of these assays are described in the application. […] “N/T” indicates the test was not performed. […]
S. aureus strains harboring the appropriate reporter construct were inoculated into 500 μl of TSB containing 10 μg/ml chloramphenicol in 1.5 ml tubes. Cultures were grown O/N at 37° C. with shaking. Bacteria were pelleted by centrifugation and spent medium was aspirated. The pellet was washed once with 500 μl of 20 mM potassium phosphate, pH 7.6, and resuspended in 150 μl of 100 mM potassium phosphate buffer, pH 8.0, 10% (v/v) acetone, 25 μg/ml lysostaphin. After 20 minute incubation at 37° C. and 5 minute incubation on ice, samples were centrifuged at 20,000 g for 30 minutes at 4° C. 1-10 μl of supernatant was added to a 96-well plate and 200 μl of 100 mM potassium phosphate, pH 8.0, 0.2 mM pyrocatechol was added to each well. Formation of 2-hydroxymuconic semialdehyde was tracked by measuring the absorbance at 375 nm every minute for 30 minutes on a Varian MP 50 microplate reader. Protein concentration in samples was determined by BCA (Pierce). One unit of specific activity of XylE in a sample is defined as the formation of 1 nmol of 2-hydroxymuconic semialdehyde per minute per milligram of cellular protein at 30° C. (Chien, Y., Manna, A. C., Projan, S. J., and Cheung, A. L. 1999, “SarA, a global regulator of virulence determinants in Staphylococcus aureus, binds to a conserved motif essential for sar-dependent gene regulation. J. Biol. Chem. 274, 37169-37176).

[4] = test system: hrtAB-driven expression of the xylE reporter gene; assay: XylE reporter assay (hrtAB promoter-xylE), Newman; type: cell-based, Staphylococcus aureus; settings: for XylE (0.05): level of XylE induction at 0.05 uM of the compound; for XylE (0.5): level of XylE induction at 0.5 uM of the compound; for XylE (5.0): level of XylE induction at 5.0 uM of the compound; for XylE (50.0): level of XylE induction at 50.0 uM of the compound
In short: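 S. aureus carrying hrtAB promoter-xylE fusion in pOS1 grown O/N at 37° C in TSB with chloramphenicol, lysed with lysostaphin. Lysate XylE activity read as 2-hydroxymuconic semialdehyde formation from 0.2 mM pyrocatechol (A375, every minute for 30 minutes), normalised to BCA protein; unit = 1 nmol/min/mg at 30° C.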

[5] = Solubility of heme in solution; type: physicochemical; settings: concentrations above this are insoluble

## O=C(N/N=C/c1ccc(-c2ccc(Br)cc2)o1)C1COc2ccccc2O1 (centres unmarked) [drawing 133]
Response regulator HssR [1]
  HssR Dep: +
Stern
  Heme Adapt: +

## CC1=NN(c2ccccc2)C(=O)/C1=N\Nc1ccccc1O
[2]
  activation at 0.0825 µM: 60.3%
  Luminescence: 1848
Response regulator HssR [3]
  HssR Dep: −
[4]
  XylE (0.05): 0.07
  XylE (0.5): 0.05
  XylE (5.0): 0.2
  XylE (50.0): 1

## Cc1ccc(-c2nnc(SCC(=O)NC3CCCC3)nc2-c2ccc(C)cc2)cc1
[2]
  activation at 0.0825 µM: 855%
  Luminescence: 1658
Response regulator HssR [3]
  HssR Dep: −
[4]
  XylE (0.5): 1
  XylE (5.0): 0.5
  XylE (50.0): 0.04

## CC(C)CSc1nnc(-c2ccccc2)c(-c2ccccc2)n1
[2]
  activation at 0.0825 µM: 383%
  Luminescence: 1706
Response regulator HssR [3]
  HssR Dep: +
[4]
  XylE (0.5): 0.04
  XylE (5.0): 0.07
  XylE (50.0): 1

## O=c1c2ccccc2nc(/C=C\c2ccccc2Cl)n1-c1ccccc1O
[2]
  Luminescence: 6843
Response regulator HssR [3]
  HssR Dep: +
[4]
  XylE (0.05): 0.08
  XylE (0.5): 1
  XylE (5.0): 50
  XylE (50.0): 1

## COc1ccc(CCNC(=O)C(=O)Nc2cccc(Cl)c2)cc1OC
[2]
  activation at 0.0825 µM: 355%
  Luminescence: 2830
Response regulator HssR [3]
  HssR Dep: −
[4]
  XylE (0.05): 1
  XylE (0.5): 0.5
  XylE (5.0): 0.8
  XylE (50.0): 5

## Oc1c(-c2cc(-c3ccco3)[nH]n2)ccc2ccccc12 [drawing 131]
Response regulator HssR [1]
  HssR Dep: −
Stern
  Heme Adapt: −

## O=C(N/N=C/c1ccc(-c2cccc(C(F)(F)F)c2)o1)C1COc2ccccc2O1 (centres unmarked) [drawing 134]
Response regulator HssR [1]
  HssR Dep: −
Stern
  Heme Adapt: −

## O=C(Nc1ccc(NC(=O)c2cccs2)c(Cl)c1)c1cccs1
[2]
  activation at 0.0825 µM: 111%
  Luminescence: 406
Response regulator HssR [3]
  HssR Dep: −
[4]
  XylE (0.05): 0.05
  XylE (0.5): 0.05
  XylE (5.0): 0.9
  XylE (50.0): 0.06

## CC(NC(=O)C1(c2ccccc2)CCCC1)C1COc2ccccc2O1 (centres unmarked) [drawing 132]
Response regulator HssR [1]
  HssR Dep: +
Stern
  Heme Adapt: +

## Brc1ccc(-c2nc(NCc3ccccc3)c3ccccc3n2)cc1
[2]
  Luminescence: 4302
Response regulator HssR [3]
  HssR Dep: −
[4]
  XylE (0.05): 1
  XylE (0.5): 1
  XylE (5.0): 0.5
  XylE (50.0): 0.2

## Cc1nc(Nc2ccc(Oc3ccccc3)cc2)c2c(C)c(C)sc2n1
[2]
  Luminescence: 1627
Response regulator HssR [3]
  HssR Dep: −
[4]
  XylE (0.5): 0.6
  XylE (5.0): 0.09
  XylE (50.0): 0

## COc1ccccc1NC1=C/C(=N\S(=O)(=O)c2ccc(Br)cc2)c2ccccc2C1=O [drawing 136]
Response regulator HssR [1]
  HssR Dep: +
Stern
  Heme Adapt: +

## c1ccc(-c2ccc(CSc3nc4ccccc4[nH]3)cc2)cc1
[2]
  Luminescence: 1822
Response regulator HssR [3]
  HssR Dep: +
[4]
  XylE (0.5): 0.03
  XylE (5.0): 0.08
  XylE (50.0): 11

## COC(NC(=O)Nc1nc2ccccc2s1)(C(F)(F)F)C(F)(F)F
[2]
  activation at 0.0825 µM: 280%
  Luminescence: 1747
Response regulator HssR [3]
  HssR Dep: −
[4]
  XylE (0.5): 4
  XylE (5.0): 0.04
  XylE (50.0): 7

## O=C(Nc1ccncc1)c1ccc(COc2cc(Cl)ccc2Cl)cc1
[2]
  activation at 0.0825 µM: 597%
  Luminescence: 1845
[4]
  XylE (0.5): 1
  XylE (5.0): 0.4
  XylE (50.0): 1

## O=C1c2ccccc2C(=O)C1C1=NNC(c2ccccc2)C1 (centres unmarked)
[2]
  activation at 0.0825 µM: 81.7%
  Luminescence: 2680
[4]
  XylE (0.05): 0.05
  XylE (0.5): 0.06
  XylE (5.0): 0.1
  XylE (50.0): 0.8

## C=CC1=C(C)c2cc3[n-]c(cc4[n-]c(cc5nc(cc1n2)C(C)=C5C=C)c(C)c4CCC(=O)O)c(CCC(=O)O)c3C.[Fe+2] [heme, reference compound]
[2]; S. aureus containing phrtABlux, solid medium without or with 4 μM heme
  light production on solid medium: generated light exclusively upon heme exposure
[2]; S. aureus wildtype containing phrtABlux, liquid media with or without heme
  luminescence in liquid media: robust luminescence
[2]; exposure of S. aureus to 3 μM heme, preliminary results
  increase in luminescence: 100 fold
[2]; heme-exposed wildtype harboring phrtABlux vs wildtype plux and ΔhssR phrtABlux, preliminary results
  increase in luminescence over negative control strains: 100 fold
[5]
  soluble concentration in solution: ≤ 30 µM

## CCCCCCC(=O)NC(NC(=S)Nc1ccccc1O)C(Cl)(Cl)Cl (centres unmarked)
[2]
  Luminescence: 2766
[4]
  XylE (0.05): 0.5
  XylE (0.5): 0.2
  XylE (5.0): 0.04
  XylE (50.0): 0.03

## Cc1cc(C)c(S(=O)(=O)Nc2ccc(O)c(-c3c(O)ccc4ccccc34)c2)cc1C
[2]
  activation at 0.0825 µM: 354%
  Luminescence: 1574
[4]
  XylE (0.5): 0.03
  XylE (5.0): 0.06
  XylE (50.0): 0.05

## Cc1ccc(CSCc2ccc(C(=O)NCc3ccc(F)cc3)o2)cc1
[2]
  activation at 0.0825 µM: 198%
  Luminescence: 1653
Response regulator HssR [3]
  HssR Dep: +
[4]
  XylE (0.5): 0
  XylE (5.0): 3
  XylE (50.0): 5

## COc1ccc(CN2CCCN(C)CC2)c(C)c1C
[2]
  activation at 0.0825 µM: 127%
  Luminescence: 534
[4]
  XylE (0.05): 0
  XylE (0.5): 0
  XylE (5.0): 1
  XylE (50.0): 1

## CCOC(=O)c1c(NC(=O)c2ccccc2)sc(C(C)=O)c1-c1ccccc1
[2]
  activation at 0.0825 µM: 109%
  Luminescence: 312
Response regulator HssR [3]
  HssR Dep: −
[4]
  XylE (0.05): 0.03
  XylE (0.5): 1
  XylE (5.0): 0.3
  XylE (50.0): 0.08

## CCCN1C(=O)/C(=C2/C(=O)N(CC(=O)Nc3ccc(Cl)cc3)c3ccccc32)SC1=S [drawing 28]
[2]
  Luminescence: 1600
Response regulator HssR [3]
  HssR Dep: −
[4]
  XylE (0.05): 1
  XylE (0.5): 0.06
  XylE (5.0): 0.07
  XylE (50.0): 0.02

## CCc1ccccc1NC(=O)C1CCCCC1C(=O)O (centres unmarked)
[2]
  activation at 0.0825 µM: 136%
  Luminescence: 576
[4]
  XylE (0.05): 1
  XylE (0.5): 0.05
  XylE (5.0): 0.02
  XylE (50.0): 1

## Cc1ccc(NS(=O)(=O)c2ccc3c(c2)Cc2cc(S(=O)(=O)Nc4ccc(C)cc4)ccc2-3)cc1 [drawing 135]
Response regulator HssR [1]
  HssR Dep: +
Stern
  Heme Adapt: +

## Cc1cccc(C(=O)N2N=C(c3cccc(Br)c3)CC2(C)C(F)(F)F)c1 (centres unmarked)
[2]
  activation at 0.0825 µM: 572%
  Luminescence: 1683
[4]
  XylE (0.5): 0.04
  XylE (5.0): 0.08
  XylE (50.0): 0.1

## CCOC(=O)c1c(C)[nH]c2c1-c1cc(Br)ccc1C(=O)C2=O
[2]
  activation at 0.0825 µM: 240%
  Luminescence: 2896
[4]
  XylE (0.05): 1
  XylE (0.5): 1
  XylE (5.0): 0.09
  XylE (50.0): 0.3

## NS(=O)(=O)c1ccc(Nc2nc(-c3ccc(Cl)cc3)cs2)cc1
[2]
  Luminescence: 4946
[4]
  XylE (0.05): 0.04
  XylE (0.5): 1
  XylE (5.0): 1
  XylE (50.0): 0.02

## O=C(/C=C/c1ccc([N+](=O)[O-])s1)Nc1ccc(I)cc1
[2]
  activation at 0.0825 µM: 107%
  Luminescence: 678
[4]
  XylE (0.05): 0.09
  XylE (0.5): 4
  XylE (5.0): 5
  XylE (50.0): 6

## O=C(O)C1CSC(c2cccnc2)=N1 (centres unmarked)
[2]
  Luminescence: 2360
Response regulator HssR [3]
  HssR Dep: −
[4]
  XylE (0.05): 1
  XylE (0.5): 1
  XylE (5.0): 1
  XylE (50.0): 3

## COc1ccc(/N=c2\nc(-c3ccccc3)n(-c3ccc(C)cc3)s2)cc1
[2]
  activation at 0.0825 µM: 266%
  Luminescence: 757
[4]
  XylE (0.05): 0.02
  XylE (0.5): 0.04
  XylE (5.0): 0
  XylE (50.0): 0
